Test results reported in patent US20020111282A1, “Antimicrobial compositions containing quaternary ammonium compounds, silanes and other disinfectants with furanones” (priority 2000, published 2002).

How the values were obtained:
Solubility in water = format: physicochemical
Penicillium digitatum = test: Zone of inhibition assay on TLC plates overlaid with agar containing fungal spores; format: cell-based; conditions: 10 μl spotted
Experimental: (§1) Fungi used: Alternaria alternata, Aureobasidium pullulans, Cladosporium cladosporioides, Penicillium digitatum Method: Base formulas for A, B, C and D were prepared as described in Table 1 below. Subsequently, test solutions were prepared either by: (1) taking a furanone or a base formula alone; or (2) by adding small amounts of suitably solubilized furanone (i.e., normally using ethanol) to a base formula so as to deliver a series of furanone concentrations in the test solutions (i.e., 10 ug/ml, 5 ug/ml, 1 ug/ml, 500 ng/ml, 100 ng/ml and 10 ng/ml). […] The various test solutions are set out at the left-hand margin of Tables 2A to 2D and can be described as follows: Once the test solutions were prepared, 10 μl of each test solution was spotted onto TLC plates. The plates were overlaid with agar containing fungal spores. The TLC plates were incubated in a high humidity environment until growth could be observed visually. At inhibitory furanone concentrations, a zone of inhibition where no fungal growth was observed formed above the test solution spot. Lower furanone concentrations resulting in a zone of inhibition correspond to higher test solution efficacy.

Alternaria alternata = test: as above; format: cell-based; conditions: 10 μl spotted
Experimental: as §1

Aureobasidium pullulans = test: as above; format: cell-based; conditions: 10 μl spotted
Experimental: as §1

[1] = test system: Cladosporium cladosporioides; test: as above; format: cell-based; conditions: 10 μl spotted
Experimental: as §1

[2] = 10 ng/ml furanone in test solution
[3] = 100 ng/ml furanone in test solution
[4] = 500 ng/ml furanone in test solution
[5] = 1 μg/ml furanone in test solution
[6] = 10 μg/ml furanone in test solution
[7] = 5 μg/ml furanone in test solution

Solubility in water (Solubility in water): sparingly soluble in water
SMILES: O=C1C=C(Br)/C(=C/Br)O1 [Furanone 30]
Zone of Inhibition with 10 ng/ml of Furanone (mm) (Penicillium digitatum; [2]): 0 mm
Zone of Inhibition with 100 ng/ml of Furanone (mm) (Penicillium digitatum; [3]): 0 mm
Zone of Inhibition with 500 ng/ml of Furanone (mm) (Penicillium digitatum; [4]): 10-19 mm
Zone of Inhibition with 1 μg/ml of Furanone (mm) (Penicillium digitatum; [5]): 12-15 mm
Zone of Inhibition with 10 μg/ml of Furanone (mm) (Penicillium digitatum; [6]): 32-45 mm
Zone of Inhibition with 10 ng/ml of Furanone (mm) (Alternaria alternata; [2]): 0 mm
Zone of Inhibition with 100 ng/ml of Furanone (mm) (Alternaria alternata; [3]): 2-3 mm
Zone of Inhibition with 500 ng/ml of Furanone (mm) (Alternaria alternata; [4]): 3-4 mm
Zone of Inhibition with 5 μg/ml of Furanone (mm) (Alternaria alternata; [7]): 35-37 mm
Zone of Inhibition with 10 μg/ml of Furanone (mm) (Alternaria alternata; [6]): 40-42 mm
Zone of Inhibition with 10 ng/ml of Furanone (mm) (Aureobasidium pullulans; [2]): 0 mm
Zone of Inhibition with 100 ng/ml of Furanone (mm) (Aureobasidium pullulans; [3]): 0 mm
Zone of Inhibition with 500 ng/ml of Furanone (mm) (Aureobasidium pullulans; [4]): 0 mm
Zone of Inhibition with 1 μg/ml of Furanone (mm) (Aureobasidium pullulans; [5]): 0 mm
Zone of Inhibition with 5 μg/ml of Furanone (mm) (Aureobasidium pullulans; [7]): 3-10 mm
Zone of Inhibition with 10 μg/ml of Furanone (mm) (Aureobasidium pullulans; [6]): 15-17 mm
Zone of Inhibition with 10 ng/ml of Furanone (mm) [1, 2]: 0 mm
Zone of Inhibition with 100 ng/ml of Furanone (mm) [1, 3]: 9-10 mm
Zone of Inhibition with 500 ng/ml of Furanone (mm) [1, 4]: 20-21 mm
Zone of Inhibition with 1 μg/ml of Furanone (mm) [1, 5]: 20-30 mm
Zone of Inhibition with 5 μg/ml of Furanone (mm) [1, 7]: 40-45 mm
Zone of Inhibition with 10 μg/ml of Furanone (mm) [1, 6]: 42-56 mm
